The values below are quoted from earlier work in patent publication US20120043242A1, “Medicinal cannabis fatty foodstuff” (priority 2010, published 2012).

The subject of one series is healthy individuals. The note with it: healthy individuals / humans.
For the next series, the system named is people who use cannabis. The note with it: compared with the no cannabinoid and the TCH+CBD groups.

Read-outs that look alike come from different tables or passages of the source.

On to `C=C(C)[C@@H]1CCC(C)=C[C@H]1c1c(O)cc(CCCCC)cc1O` [CBD, cannabidiol], for which, in the series with healthy individuals, the “anxiety and psychotic symptoms” value is “anxiolytic and to have antipsychotic properties”.

For `CCCCCc1cc2c(c(O)c1C(=O)O)[C@@H]1C=C(C)CC[C@H]1C(C)(C)O2` [THCA-A, tetrahydrocannabinol carboxylic acid], the “decarboxylation of concentrated THCA-A in solution into Δ^9-THC” value reads like this: (120 degrees C.) “Partial decarboxylation”; (140 degrees C.) “Significant decarboxylation”; (160 degrees C.) “Nearly complete decarboxylation”.

As to `CCCCCc1cc(O)c2c(c1)OC(C)(C)[C@@H]1CCC(C)=C[C@@H]21` [Δ^9-THC, Tetrahydrocannabinol], the “degradation of Δ^9-THC into cannabinol and dihydrocannabinol” value runs as follows: (160 degrees C.) “some degradation”; (180 degrees C.) “A significant percentage”. Besides, in the series with people who use cannabis, the positive schizophrenia-like symptoms result is on record as “higher levels”. Further, the “anxiety and psychotic symptoms” value with healthy individuals was “elevate levels of anxiety and psychotic symptoms”.
